Laboratory results published in article PMC3914206.

Legend:
Assay type in all cases: binding
Conditions in all cases: Compound Concentration 10 µM
[1] = biological target: T1, panel of 442 kinases (Homo sapiens, UniProt P42336, I800L)
T1 construct: purchased KINOMEscan
From the text: (§1) We assessed the selectivity of members of this scaffold using the KINOMEscan methodology across a near comprehensive panel of 442 kinases [[18,27]].

[2] = biological target: T2, panel of 442 kinases (Homo sapiens, UniProt P08581)
T2 construct: purchased KINOMEscan
From the text: as §1

[3] = biological target: T3, panel of 442 kinases (Homo sapiens, UniProt P10721, V559D/V654A)
T3 construct: purchased KINOMEscan
From the text: as §1

[4] = biological target: T4, panel of 442 kinases (Homo sapiens, UniProt Q9Y6M4)
T4 construct: purchased KINOMEscan
From the text: as §1

T3 sequence (P10721 26-976 V559D/V654A): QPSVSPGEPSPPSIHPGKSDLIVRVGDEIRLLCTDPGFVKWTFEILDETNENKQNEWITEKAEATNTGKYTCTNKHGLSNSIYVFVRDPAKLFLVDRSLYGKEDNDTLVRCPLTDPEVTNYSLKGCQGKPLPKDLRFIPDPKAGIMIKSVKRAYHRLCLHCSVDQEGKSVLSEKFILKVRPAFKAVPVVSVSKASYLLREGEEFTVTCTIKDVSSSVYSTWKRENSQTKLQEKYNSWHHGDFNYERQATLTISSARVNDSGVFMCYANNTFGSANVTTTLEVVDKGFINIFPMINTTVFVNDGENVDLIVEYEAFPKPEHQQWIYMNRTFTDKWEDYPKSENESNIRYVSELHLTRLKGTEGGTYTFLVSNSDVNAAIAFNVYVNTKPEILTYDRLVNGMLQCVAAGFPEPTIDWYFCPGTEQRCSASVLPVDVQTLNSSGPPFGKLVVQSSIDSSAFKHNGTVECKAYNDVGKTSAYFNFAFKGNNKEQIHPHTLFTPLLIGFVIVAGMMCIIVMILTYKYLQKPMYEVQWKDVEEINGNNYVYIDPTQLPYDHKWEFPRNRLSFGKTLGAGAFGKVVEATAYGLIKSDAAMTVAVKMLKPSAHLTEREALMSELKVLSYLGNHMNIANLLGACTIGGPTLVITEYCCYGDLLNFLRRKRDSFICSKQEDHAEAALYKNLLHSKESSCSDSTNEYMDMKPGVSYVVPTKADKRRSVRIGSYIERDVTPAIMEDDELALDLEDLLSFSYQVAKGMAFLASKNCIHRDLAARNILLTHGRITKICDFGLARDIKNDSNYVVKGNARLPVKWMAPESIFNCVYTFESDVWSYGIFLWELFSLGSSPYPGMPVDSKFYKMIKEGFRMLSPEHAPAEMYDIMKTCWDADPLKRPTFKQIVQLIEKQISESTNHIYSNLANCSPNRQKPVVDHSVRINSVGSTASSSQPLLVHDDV
T1 sequence (P42336 whole entry I800L): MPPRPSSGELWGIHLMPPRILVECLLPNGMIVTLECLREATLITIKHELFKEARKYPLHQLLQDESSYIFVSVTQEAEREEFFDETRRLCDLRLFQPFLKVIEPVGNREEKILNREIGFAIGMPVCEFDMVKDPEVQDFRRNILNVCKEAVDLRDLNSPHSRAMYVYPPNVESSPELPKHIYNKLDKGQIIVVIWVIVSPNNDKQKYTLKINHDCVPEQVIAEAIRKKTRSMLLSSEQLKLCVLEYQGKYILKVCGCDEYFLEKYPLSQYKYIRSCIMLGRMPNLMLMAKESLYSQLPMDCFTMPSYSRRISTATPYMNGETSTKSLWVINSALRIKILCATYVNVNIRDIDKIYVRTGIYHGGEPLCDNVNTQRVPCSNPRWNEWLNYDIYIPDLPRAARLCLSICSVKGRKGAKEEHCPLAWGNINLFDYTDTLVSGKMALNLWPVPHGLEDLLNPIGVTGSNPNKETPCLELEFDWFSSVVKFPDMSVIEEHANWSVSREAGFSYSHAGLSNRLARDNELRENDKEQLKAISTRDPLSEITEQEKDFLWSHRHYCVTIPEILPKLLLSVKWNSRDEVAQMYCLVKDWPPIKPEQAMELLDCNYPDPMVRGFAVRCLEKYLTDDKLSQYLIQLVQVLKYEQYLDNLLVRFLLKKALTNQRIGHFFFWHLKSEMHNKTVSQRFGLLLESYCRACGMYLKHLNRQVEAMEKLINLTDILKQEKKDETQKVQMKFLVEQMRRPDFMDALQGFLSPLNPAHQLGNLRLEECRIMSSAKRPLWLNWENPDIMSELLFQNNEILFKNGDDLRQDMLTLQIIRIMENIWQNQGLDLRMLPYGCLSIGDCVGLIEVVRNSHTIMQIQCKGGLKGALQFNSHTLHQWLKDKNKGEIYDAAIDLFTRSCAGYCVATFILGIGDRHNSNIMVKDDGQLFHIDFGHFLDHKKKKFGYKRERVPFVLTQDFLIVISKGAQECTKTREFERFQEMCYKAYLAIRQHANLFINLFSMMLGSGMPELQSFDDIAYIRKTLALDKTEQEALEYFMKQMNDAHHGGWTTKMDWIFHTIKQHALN
T2 sequence (P08581 25-1390): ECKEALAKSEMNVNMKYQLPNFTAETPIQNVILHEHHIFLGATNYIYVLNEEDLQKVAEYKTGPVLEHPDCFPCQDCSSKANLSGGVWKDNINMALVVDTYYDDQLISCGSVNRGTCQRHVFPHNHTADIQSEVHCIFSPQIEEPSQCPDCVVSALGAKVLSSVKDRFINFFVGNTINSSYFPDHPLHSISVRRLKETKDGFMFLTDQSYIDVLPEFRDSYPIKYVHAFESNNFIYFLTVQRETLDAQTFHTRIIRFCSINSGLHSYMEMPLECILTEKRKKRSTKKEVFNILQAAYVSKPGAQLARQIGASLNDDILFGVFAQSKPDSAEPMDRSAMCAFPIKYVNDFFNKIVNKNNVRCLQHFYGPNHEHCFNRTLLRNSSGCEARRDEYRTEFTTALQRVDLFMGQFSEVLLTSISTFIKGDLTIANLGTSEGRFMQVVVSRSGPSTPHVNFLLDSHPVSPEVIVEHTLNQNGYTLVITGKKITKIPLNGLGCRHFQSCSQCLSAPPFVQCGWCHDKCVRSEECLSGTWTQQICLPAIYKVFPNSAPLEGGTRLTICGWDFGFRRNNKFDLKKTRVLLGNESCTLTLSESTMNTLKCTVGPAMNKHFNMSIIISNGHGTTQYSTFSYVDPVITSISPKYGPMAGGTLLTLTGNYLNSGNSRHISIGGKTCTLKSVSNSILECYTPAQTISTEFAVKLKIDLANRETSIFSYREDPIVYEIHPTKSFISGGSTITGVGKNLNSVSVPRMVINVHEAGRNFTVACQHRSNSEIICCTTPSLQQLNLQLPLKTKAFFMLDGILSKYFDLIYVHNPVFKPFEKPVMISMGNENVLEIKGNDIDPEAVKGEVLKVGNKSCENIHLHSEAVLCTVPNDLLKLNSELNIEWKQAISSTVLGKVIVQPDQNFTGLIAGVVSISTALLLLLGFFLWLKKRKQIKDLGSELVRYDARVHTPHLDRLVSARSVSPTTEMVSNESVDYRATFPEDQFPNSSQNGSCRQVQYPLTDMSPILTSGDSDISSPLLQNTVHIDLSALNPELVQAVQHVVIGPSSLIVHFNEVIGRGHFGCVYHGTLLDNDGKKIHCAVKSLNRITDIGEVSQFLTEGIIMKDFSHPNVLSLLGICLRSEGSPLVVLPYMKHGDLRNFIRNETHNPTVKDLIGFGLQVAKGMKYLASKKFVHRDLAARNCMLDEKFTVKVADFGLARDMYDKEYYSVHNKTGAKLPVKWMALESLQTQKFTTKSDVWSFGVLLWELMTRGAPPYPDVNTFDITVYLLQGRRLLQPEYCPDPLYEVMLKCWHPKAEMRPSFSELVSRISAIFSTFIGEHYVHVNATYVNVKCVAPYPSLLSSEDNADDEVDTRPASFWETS
T4 sequence (Q9Y6M4 whole entry): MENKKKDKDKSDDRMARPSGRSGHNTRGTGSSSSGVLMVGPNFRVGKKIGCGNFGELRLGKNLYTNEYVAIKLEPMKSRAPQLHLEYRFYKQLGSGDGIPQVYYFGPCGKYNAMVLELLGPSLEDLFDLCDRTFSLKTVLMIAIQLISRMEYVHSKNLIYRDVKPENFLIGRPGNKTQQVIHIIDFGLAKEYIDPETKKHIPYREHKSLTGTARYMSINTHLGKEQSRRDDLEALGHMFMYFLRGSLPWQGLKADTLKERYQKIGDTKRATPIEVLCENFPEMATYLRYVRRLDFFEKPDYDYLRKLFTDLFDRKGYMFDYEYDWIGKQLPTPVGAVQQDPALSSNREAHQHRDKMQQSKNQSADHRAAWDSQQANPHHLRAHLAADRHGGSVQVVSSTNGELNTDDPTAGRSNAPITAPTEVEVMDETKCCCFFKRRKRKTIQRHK

Row | SMILES | KINOMEscan: PIK3CA(I800L) [1] | KINOMEscan: MET [2] | KINOMEscan: KIT(V559D,V654A) [3] | KINOMEscan: CSNK1G3 [4]
1 | CCOc1cc(C(=O)N2CCC(N3CCN(C)CC3)CC2)ccc1Nc1ncc2c(n1)N(C1CCCC1)c1ccccc1C(=O)N2C [Compound 26] | 75 | 100 | 100 | 91
2 | COc1cc(C(=O)N2CCC(N3CCN(C)CC3)CC2)ccc1Nc1ncc2c(n1)N(C1CCCC1)c1ccccc1C(=O)N2C [Compound 25, 11-cyclopentyl-2-((2-methoxy-4-(4-(4-methylpiperazin-1-yl)piperidine-1-carbonyl)phenyl)amino)-5-methyl-5H-benzo[e]pyrimido[5,4-b][1,4]diazepin-6(11H)-one] | 100 | 97 | 100 | 96
3 | COc1cc(C(=O)N2CCC(N3CCN(C)CC3)CC2)ccc1Nc1ncc2c(n1)N1CCc3cccc(c31)C(=O)N2C [Compound 24] | 64 | – | – | –
4 | COc1cc(C(=O)N2CCC(N3CCN(C)CC3)CC2)ccc1Nc1ncc2c(n1)N(C)c1ccccc1C(=O)N2C [15 (LRRK2-IN-1)] | 38 | 100 | 100 | 93
